Assay results: US6492137B1, “Response element compositions and assays employing same” (The Salk Institute for Biological Studies, priority 1989, dated 2002)

Columns and labels:
endogenous RA receptor [1] = experiment: Survey of cell lines for RA-dependent transactivation of the βRARE without transfected RAR; type: cell-based; conditions: CV-1, F9, P19, CHO, HeLa, NIH 3T3, Rat2 fibroblasts, HT1080.T, chick embryo fibroblasts, quail QT6 cells
endogenous RA receptor [2] = experiment: Delta-MTV-CAT constructs, RA induction in CV-1 cells without cotransfected RAR expression vector; type: cell-based, monkey
Description: (§1) Cells were transfected in 10 cm dishes with 10 μg of DNA containing 5 μg of reporter plasmid, 1-2 μg of either RSV-LUC (a), or RSV-βGAL or pCH110 (c and d), pGEM4 as carrier DNA, and for the experiments shown in a and d, 1 μg of RSV-RAR expression vector or the same amount of an RSV vector generating a nonsense transcript. Cells were harvested 1 day after addition of retinoic acid. All CAT assays represent equivalent amounts of β-galactosidase activity; β-GAL assays were normalized to luciferase activity.

RARα = molecular target: T1, RARα (Homo sapiens, UniProt P10276); experiment: Gel retardation DNA-binding assay with RARα-expressing COS cell extracts; parameters: expressed in transfected cells; host or cells: COS cells (whole-cell extract)
T1 sequence (P10276 1-462): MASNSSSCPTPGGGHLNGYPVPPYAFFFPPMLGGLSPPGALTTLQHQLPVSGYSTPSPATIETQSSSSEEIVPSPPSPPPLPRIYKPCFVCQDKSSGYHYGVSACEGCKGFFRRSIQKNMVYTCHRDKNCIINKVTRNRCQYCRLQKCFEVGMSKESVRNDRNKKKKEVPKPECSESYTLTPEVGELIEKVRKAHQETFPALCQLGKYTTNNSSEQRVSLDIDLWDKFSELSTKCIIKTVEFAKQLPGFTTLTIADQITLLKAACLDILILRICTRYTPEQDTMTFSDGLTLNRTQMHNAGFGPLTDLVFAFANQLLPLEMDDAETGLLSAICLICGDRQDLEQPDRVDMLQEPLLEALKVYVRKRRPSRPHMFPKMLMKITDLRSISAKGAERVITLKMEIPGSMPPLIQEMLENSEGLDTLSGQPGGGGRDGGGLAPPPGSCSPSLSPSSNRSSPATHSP
Description: For DNA binding assays, COS cells were cultured in DMEM with 10% calf bovine serum and transfected by the calcium phosphate method with 20 μg of the pCMX receptor expression plasmid for 6 hours followed by a glycerol shock. After incubating the transfected COS cells for another 48 hours, the cells were harvested to prepare extracts for the DNA binding assay, carried out as described by Damm et al., Nature 339: 593-597 (1989). The extracts were made in 20 mM HEPES (pH 7.4), 0.4 M KCl, 2 mM DTT and 20% glycerol. A similar method was employed to prepare a whole cell extract from F9 stem cells. For the binding, 5 μg (COS) or 10 μg (F9) of proteins was incubated on ice for 20 minutes, first in 20 mM HEPES, 80 mM KCl, 1 mM DTT, 0.1% NP40, 2.5 μg of poly dI/dC, and 10% glycerol (cold competitor oligonucleotides, when included, were added during this pre-incubation period). Then 40 fmole of ^32P-labeled oligonucleotide probe (1-2×10^5 cpm, prepared by filling-in reaction using Klenow polymerase in the presence of α-^32P-dCTP) was added to the reaction mixture, followed by incubation at room temperature for 30 minutes. The receptor-DNA complexes were resolved by electrophoresis through 5% polyacrylamide gel containing 5% glycerol at 6 V/cm at room temperature.
Oligonucleotides listed in FIG. 3 were used as a probe to test specific DNA-binding of the RARα and TRβ in a gel retardation assay. On the βRARE, a faint background binding activity was detected in the mock transfected COS cell extract. […] In each case the result obtained from in vivo transactivation and in vitro DNA binding are consistent.
Using the mobility shift assay, the DNA-binding capacity of extracts from COS cells expressing TRβ and RARα to these sequences was also tested. […] This pattern is consistent with that of the in vivo activation (FIG. 4). A reciprocal pattern was obtained when the same oligonucleotides were used to compete RARα binding to the ^32P-labeled βRARE. […] This provides a striking example of the role of half-site spacing in generating a functional response element.

RAR = molecular target: T2, RAR (Homo sapiens, UniProt P10276); experiment: Delta-MTV constructs, RA induction in CV-1 cells with cotransfected RAR expression vector; type: cell-based; conditions: Delta-MTV-CAT constructs; CV-1 cells
T2 construct: expressed in transfected cells; host or cells: CV-1 (monkey kidney)
T2 sequence (P10276 1-462): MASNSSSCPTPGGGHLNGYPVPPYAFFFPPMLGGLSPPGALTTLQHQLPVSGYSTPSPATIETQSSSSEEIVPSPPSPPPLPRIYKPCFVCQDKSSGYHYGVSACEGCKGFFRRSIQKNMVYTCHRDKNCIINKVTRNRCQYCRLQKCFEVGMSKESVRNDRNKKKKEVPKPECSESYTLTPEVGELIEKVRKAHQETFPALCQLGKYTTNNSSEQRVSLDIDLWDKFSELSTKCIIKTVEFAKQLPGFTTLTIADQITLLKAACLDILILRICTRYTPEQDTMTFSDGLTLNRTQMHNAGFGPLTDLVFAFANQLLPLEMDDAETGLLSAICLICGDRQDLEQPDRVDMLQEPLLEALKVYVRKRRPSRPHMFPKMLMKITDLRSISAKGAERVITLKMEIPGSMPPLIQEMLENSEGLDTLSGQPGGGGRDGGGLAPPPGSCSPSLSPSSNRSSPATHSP
Description: Inspection of the sequences of βRE1, βRE2, and βRE3 (see FIG. 2b) identifies a tandem repeat of the 6 bp motif. The center to center separation of 11 bp between these repeats is one turn of the DNA helix. […] Apparently, a single half site element of the RARβ gene would reciprocally be responsive to the TR, ER, and/or other members of the receptor superfamily.
as §1

TRβ = molecular target: T3, TRβ (Homo sapiens, UniProt P10828); experiment: Gel retardation DNA-binding assay with TRβ-expressing COS cell extracts; parameters: expressed in transfected cells; host or cells: COS cells (whole-cell extract)
T3 sequence (P10828 1-461): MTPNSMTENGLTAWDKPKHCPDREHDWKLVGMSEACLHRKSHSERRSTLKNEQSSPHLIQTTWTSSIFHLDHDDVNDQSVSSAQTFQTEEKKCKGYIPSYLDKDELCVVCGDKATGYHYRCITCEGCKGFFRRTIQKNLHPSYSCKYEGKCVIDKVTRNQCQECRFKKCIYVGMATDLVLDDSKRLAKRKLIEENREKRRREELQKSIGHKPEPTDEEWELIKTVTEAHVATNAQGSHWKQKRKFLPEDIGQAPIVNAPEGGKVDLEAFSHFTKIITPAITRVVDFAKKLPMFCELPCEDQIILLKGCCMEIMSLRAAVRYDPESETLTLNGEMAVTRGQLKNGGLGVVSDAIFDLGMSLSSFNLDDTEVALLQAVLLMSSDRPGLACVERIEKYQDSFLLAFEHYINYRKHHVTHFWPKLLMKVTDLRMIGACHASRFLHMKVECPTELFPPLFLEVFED
In short: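 Extracts of COS cells transfected with pCMX TRβ expression plasmid, 48 h post-transfection; 5 μg protein pre-incubated on ice 20 min with poly dI/dC, then 40 fmole 32P-labelled oligonucleotide 30 min at room temperature. Complexes resolved on 5% polyacrylamide gel.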

[3] = molecular target: T4, Vitamin D receptor (VDR), in CV-1 cells (Homo sapiens, UniProt P11473 P11473:1-427); experiment: cell_activity; vitamin D3 100 nM, CV-1; conditions: tags: pRShVDR; label: 32P; 5'-agct overhangs
T4 sequence: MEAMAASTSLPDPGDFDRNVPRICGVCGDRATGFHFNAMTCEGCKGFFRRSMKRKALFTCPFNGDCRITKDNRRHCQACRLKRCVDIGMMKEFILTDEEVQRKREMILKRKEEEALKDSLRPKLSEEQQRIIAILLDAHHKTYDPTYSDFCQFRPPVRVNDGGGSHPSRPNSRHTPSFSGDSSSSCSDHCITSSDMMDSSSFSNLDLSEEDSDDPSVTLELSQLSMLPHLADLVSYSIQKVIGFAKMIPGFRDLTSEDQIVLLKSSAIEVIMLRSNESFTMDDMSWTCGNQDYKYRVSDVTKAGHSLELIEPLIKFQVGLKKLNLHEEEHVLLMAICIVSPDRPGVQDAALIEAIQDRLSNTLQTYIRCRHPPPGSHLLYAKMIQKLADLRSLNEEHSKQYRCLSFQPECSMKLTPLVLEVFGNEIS
Description: (§2) For cotransfection assays, a monkey kidney cell line CV-1 was kept in Dulbecco's modified Eagle's medium (DMEM) supplemented with 10% charcoal-resin double split calf bovine serum. Transfections were performed via calcium-phosphate precipitation method as described by Umesono, et al. in Cell 57: 1139–1146 (1989), with 0.5 μg of a pRS receptor expression plasmid, 1.0 μg of a reporter CAT plasmid, 5 μg of pRAS-βGAL [Umesono, et al., Cell 57: 1139–1146 (1989)] as an internal control, and 8.5 μg of carrier plasmid pUC19. The cells were transfected for 8 hours; after washing the DNA precipitates, the cells were then incubated for an additional 36 hours with or without the ligand (T_3, 100 nM; RA, 1 μM; 1,25-(OH)_2 vitamin D_3, 100 nM). Cell extracts were prepared for βGAL and CAT assays, as described by Umesono, et al., supra. Transfection of F9 teratocarcinoma cells was carried out employing a similar method except the cells were incubated for 12 hours in the presence of the DNA precipitates, and the RA was added at 1 μM for another 24 hours before harvesting the cells. 2, 5, and 4 μg of the reporter, pRAS-βGAL, and pUC19 were used, respectively.
(§3) The above strategies were used to test both in vivo transactivation and in vitro DNA-binding of these artificial HREs for TRβ, RARα, and VDR. […]

[4] = molecular target: T5, Retinoic acid receptor alpha (RARα), in CV-1 cells (Homo sapiens, UniProt P10276 P10276:1-462); experiment: cell_activity; RA 1 µM, CV-1; conditions: tags: RSV or pRS expression vector; label: 32P; 5'-agct overhangs
T5 sequence: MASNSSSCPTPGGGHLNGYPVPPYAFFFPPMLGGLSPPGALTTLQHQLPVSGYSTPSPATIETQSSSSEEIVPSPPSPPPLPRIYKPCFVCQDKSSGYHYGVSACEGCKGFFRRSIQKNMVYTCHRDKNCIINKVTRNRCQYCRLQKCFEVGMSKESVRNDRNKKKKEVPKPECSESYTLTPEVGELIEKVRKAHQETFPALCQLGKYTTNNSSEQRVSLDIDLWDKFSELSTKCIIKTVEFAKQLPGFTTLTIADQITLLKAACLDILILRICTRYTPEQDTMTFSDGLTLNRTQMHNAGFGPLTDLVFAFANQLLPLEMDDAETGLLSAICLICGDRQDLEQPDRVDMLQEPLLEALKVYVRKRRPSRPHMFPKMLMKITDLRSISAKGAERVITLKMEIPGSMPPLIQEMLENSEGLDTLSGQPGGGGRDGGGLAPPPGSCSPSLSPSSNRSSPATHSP
Description: as §2, §3

[5] = molecular target: T6, Thyroid hormone receptor beta (TRβ), in CV-1 cells (Homo sapiens, UniProt P10828 P10828:1-461); experiment: cell_activity; T3 100 nM, CV-1; conditions: tags: pRShTRβ; label: 32P; 5'-agct overhangs
T6 sequence: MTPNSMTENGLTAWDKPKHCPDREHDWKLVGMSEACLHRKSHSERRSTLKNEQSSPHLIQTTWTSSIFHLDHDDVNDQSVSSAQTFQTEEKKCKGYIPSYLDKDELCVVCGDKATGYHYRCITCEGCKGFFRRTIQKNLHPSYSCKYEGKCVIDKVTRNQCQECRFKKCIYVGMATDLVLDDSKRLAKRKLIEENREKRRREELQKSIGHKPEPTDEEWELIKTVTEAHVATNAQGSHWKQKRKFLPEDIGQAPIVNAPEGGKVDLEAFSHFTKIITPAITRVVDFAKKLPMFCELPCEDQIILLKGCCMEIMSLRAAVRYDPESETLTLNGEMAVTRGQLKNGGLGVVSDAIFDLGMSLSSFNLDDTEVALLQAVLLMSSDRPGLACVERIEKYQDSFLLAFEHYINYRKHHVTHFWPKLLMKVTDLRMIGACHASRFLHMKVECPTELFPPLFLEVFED
Description: as §2, §3

## 5′-AAGCTTAAG-GGTTCA-CCGAA-AGTTCA-CTCGCATAGCTT-3′ (SEQ ID NO:6) (AAGCTTAAGGGTTCACCGAAAGTTCACTCGCATAGCTT; DNA, backbone not given here) [βRE2, oligonucleotide including the β retinoic acid response element; βRARE corresponds to βRE2]
Endogenous RA receptor [1]
  RA-dependent transactivation in the absence of transfected RAR expression vector: efficiently transactivate
Endogenous RA receptor [2]
  RA-dependent induction in the absence of cotransfected RAR expression vector: robust RA-dependent induction
RARα; gel retardation, RARα COS cell extract
  RARα binding to labeled oligonucleotide probe: dramatically enhanced
RARα; unlabeled competitor oligonucleotide, COS cell extracts
  competition for RARα binding to 32P-labeled βRARE: effective competitors
RAR
  increase of induction by cotransfection of RAR-alpha expression vector: two-fold
TRβ; gel retardation, TRβ COS cell extract
  TRβ binding to labeled oligonucleotide probe: weak, yet detectable binding activity
TRβ; unlabeled competitor oligonucleotide, COS cells expressing TRβ
  competition for TRβ binding (mobility shift assay): poor competitors

B1: DR-3 (dsDNA)
DNA 1: AGCTTCAGGTCAAGGAGGTCAGAGAGCT
DNA 2: AGCTCTCTGACCTCCTTGACCTGAAGCT
[3]
  activity: 8.3 fold induction

B2: DR-5 (dsDNA)
DNA 1: AGCTTCAGGTCACCAGGAGGTCAGAGAGCT
DNA 2: AGCTCTCTGACCTCCTGGTGACCTGAAGCT
[4]
  activity: 9 fold induction

B3: DR-4 (dsDNA)
DNA 1: AGCTTCAGGTCACAGGAGGTCAGAGAGCT
DNA 2: AGCTCTCTGACCTCCTGTGACCTGAAGCT
[5]
  activity: 22 fold induction
